Here are results for two molecules from patent EP0319906A2, “Novel quinoline derivatives, processes for preparation thereof and antibacterial agent containing them” (Dainippon Pharmaceutical Co., Ltd., priority 1987, dated 1989).

Holding throughout (assay type): cell-based
In one experiment the test system is C. Trachomatics G/ur 931. The experiment can be described thus: Antichlamydia activity, MIC in McCoy cells (inclusion bodies). Conditions: read-out: minimum inhibitory concentrations (MIC). Here is the method: (§1) The figures in the table show minimum inhibitory concentrations (MIC), (μg/ml), calculated for free base. Minimum inhibitory concentrations (MIC) were determined as follows. […] The cells were trypsinized and suspended in the same culture medium at a cell concentration of 1-2 x 10^5 cells/ml. One ml of the cell suspension was pipetted into flat-bottomed plastic tubes (14 mm in diameter) containing a cover slip (12 mm in diameter). The tubes were incubated in 5 % CO2-air at 36 °C for 20 hours. One-half ml of a chlamydial suspension (ca. 1-4 x 103 inclusion body forming units) was added into each tube, which was then centrifuged at 1500 x g for 60 minutes. The tubes were incubated for 1 hour at 36 °C. […] After further incubation at 36 °C for 40-48 hours, the cells on the cover glasses were stained with the Giemsa's solution. […] The MIC was defined as the lowest drug concentration where there were no inclusion bodies in all the cells on the cover slip.

For experiment [1], the system named is C. Trachomatics G/ur 1317. Described as above. To be noted: read-out: minimum inhibitory concentrations (MIC). The protocol: as §1
For experiment [2], the system named is C. Trachomatics G/ur 1242. Described as above. Conditions: read-out: minimum inhibitory concentrations (MIC). The protocol:
as §1

For experiment [3], the system named is C. Trachomatics G/ur 1448. The experiment is described as above. To be noted: read-out: minimum inhibitory concentrations (MIC). The protocol:
as §1

The next experiment relates to M. arginini G-230. The experiment can be described thus: Antimycoplasma activity, twofold agar dilution MIC. Conditions: 48 h, read-out: minimum inhibitory concentrations (MIC). The protocol: (§2) The figures in the table show minimum inhibitory concentrations (MIC), (μg/ml), calculated for free base. Minimum inhibitory concentrations (MIC) were determined by the twofold agar dilution method. The media used were Chanock broth and agar [PPLD broth and agar (Difco) supplemented with 20 % horse serum and 10 % fresh yeast extract]. A 2-3 day broth culture of organisms was diluted with Chanock broth to a cell density of about 10^6 cells/ml. One loopful (about […]) of the organism dilution was spotted onto 10-ml drug containing Chanock agar in petri dishes using a multiple inoculator ([…] International). […] Incubation was performed anaerobically using the […] anaerobic system (BBL) for M. buccale, M. fermentans, M. hominis, M. orale and M. salivarium, and aerobically for other Mycoplasma spp. The MIC was defined as the lowest compound concentration at which no growth of organism was detected.

The next experiment has as its system A. laidlawii PG-8. Description: Antimycoplasma activity, twofold agar dilution MIC. To be noted: Acholeplasma laidlawii, PG8, 48 h, read-out: minimum inhibitory concentrations (MIC). Here is the method:
as §2

A further experiment deals with M. hyorhinis BST-7. The experiment can be described thus: Antimycoplasma activity, twofold agar dilution MIC. Conditions: Mesomycoplasma hyorhinis, BST7, 48 h, read-out: minimum inhibitory concentrations (MIC). Here is the method:
as §2

The test system of the next experiment is M. hominis PG-21. Description: Antimycoplasma activity, twofold agar dilution MIC. Conditions: Metamycoplasma hominis, PG21, 48 h, read-out: minimum inhibitory concentrations (MIC). Here is the method: as §2
Another experiment concerns M. fermentans PG-18. The experiment can be described thus: Antimycoplasma activity, twofold agar dilution MIC. To be noted: Mycoplasmopsis fermentans, PG18, 48 h, read-out: minimum inhibitory concentrations (MIC). The protocol: as §2
Another experiment has as its system M. pneumoniae Mac. Description: Antimycoplasma activity, twofold agar dilution MIC. Conditions: Mycoplasmoides pneumoniae, 168 h, read-out: minimum inhibitory concentrations (MIC). Here is the method: as §2
The next experiment concerns M. buccale CH-20249. Description: Antimycoplasma activity, twofold agar dilution MIC. To be noted: 48 h, read-out: minimum inhibitory concentrations (MIC). The protocol:
as §2

Another experiment relates to M. orale CH-19299. The experiment can be described thus: Antimycoplasma activity, twofold agar dilution MIC. To be noted: po, 48 h, read-out: minimum inhibitory concentrations (MIC). Here is the method: as §2
The subject of the next experiment is M. salivarium PG-20. The experiment can be described thus: Antimycoplasma activity, twofold agar dilution MIC. To be noted: 48 h, read-out: minimum inhibitory concentrations (MIC). The protocol:
as §2

Another experiment has as its system S. aureus Terajima. Description: In vitro antibacterial activity, twofold agar-dilution MIC. Conditions: Staphylococcus aureus, read-out: minimum inhibitory concentrations (MIC). The protocol: (§3) The figures in the table show minimum inhibitory concentrations (MIC) (µg/ml), calculated for free base. […] One loopful of an overnight culture of test organisms in Mueller-Hinton broth was inoculated onto 10 ml drug- containing agar layers in petri dishes. Bacterial inocula contained approximately 10⁶ colonyl-forming units. […] The MIC was defined as the lowest drug concentration which prevented visible bacterial growth.

The subject of the next experiment is S. epidermidis No. 8. The description is as above. Conditions: Staphylococcus epidermidis, read-out: minimum inhibitory concentrations (MIC). The protocol: as §3
A further experiment concerns S. marcescens S-9. Described as above. Conditions: Serratia marcescens, read-out: minimum inhibitory concentrations (MIC). The protocol:
as §3

Another experiment has as its system P. aeruginosa 12. The description is as above. Conditions: read-out: minimum inhibitory concentrations (MIC). The protocol:
as §3

For the next experiment, the system named is S. aureus 209 JC-1. Described as above. To be noted: Staphylococcus aureus, read-out: minimum inhibitory concentrations (MIC). The protocol:
as §3

A further experiment deals with S. pyogenes A65. Described as above. Conditions: Streptococcus pyogenes, read-out: minimum inhibitory concentrations (MIC). Here is the method:
as §3

The subject of another experiment is E. coli P-5101. The description is as above. Conditions: Escherichia coli, read-out: minimum inhibitory concentrations (MIC). Here is the method: as §3
In a further experiment the test system is S. aureus No. 80. Described as above. Conditions: Staphylococcus aureus, read-out: minimum inhibitory concentrations (MIC). The protocol:
as §3

The subject of the next experiment is E. coli NIHJ JC-2. The description is as above. To be noted: Escherichia coli, read-out: minimum inhibitory concentrations (MIC). Here is the method:
as §3

SMILES strings stand for the structures. ≈ marks a conversion by molar mass, not a printed value. Read-outs that look alike come from different tables or passages of the source.

As for `Cl.O=C(O)c1cn(C2CC2)c2cc(N3CCNCC3)c(F)cc2c1=O` [Compound A, 1-cyclopropyl-6-fluoro-7-(1-piperazinyl)-1,4-dihydro-4-oxoquinoline-3-carboxylic acid hydrochloride], the MIC with C. Trachomatics G/ur 931 amounted to 1 µg/mL; in [1], 2 µg/mL; in experiment [2], 1 µg/mL; in experiment [3], 1 µg/mL; in the experiment with M. arginini G-230, 0.39 µg/mL; in the experiment on A. laidlawii PG-8 it was 0.39 µg/mL. Also, the MIC in the experiment on M. hyorhinis BST-7 was found to be 0.39 µg/mL; with M. hominis PG-21, 1.56 µg/mL; with M. fermentans PG-18 it was 0.2 µg/mL; in the experiment with M. pneumoniae Mac, 0.78 µg/mL; in the experiment with M. buccale CH-20249 it was 0.39 µg/mL; in the experiment on M. orale CH-19299, 1.56 µg/mL. The MIC with M. salivarium PG-20 came out at 3.13 µg/mL; with S. aureus Terajima (20 h), 0.1 µg/mL; in the experiment on S. epidermidis No. 8 (NO.8, 20 h), 0.1 µg/mL; in the experiment on S. marcescens S-9 (S9, 20 h), 0.05 µg/mL; in the experiment with P. aeruginosa 12 (Pseudomonas aeruginosa, 12, 20 h), 0.1 µg/mL; with S. aureus 209 JC-1 (209JC1, 20 h), 0.1 µg/mL. For the same molecule, the MIC was 0.2 µg/mL with S. pyogenes A65 (A65, 20 h); 0.0063 µg/mL in the experiment on E. coli P-5101 (P5101, 20 h); 0.39 µg/mL with S. aureus No. 80 (NO.80, 20 h); 0.0063 µg/mL in the experiment with E. coli NIHJ JC-2 (NIHJJC2, 20 h).

`C[C@@H]1CN(c2c(F)cc3c(=O)c(C(=O)O)cn(C4CC4)c3c2F)C[C@H](C)N1` [Compound C, 1-cyclopropyl-6,8-difluoro-7-(cis-3,5-dimethyl-1-piperazinyl)-1,4-dihydro-4-oxoquinoline-3-carboxylic acid]: the MIC was 0.2 µg/mL (≈ 0.53 µM) in the experiment with C. Trachomatics G/ur 931 (C. Trachomatics G/ur 931, McCoy cells, 36 °C for 40-48 hours, calculated for free base); 0.2 µg/mL (≈ 0.53 µM) in experiment [1] (C. Trachomatics G/ur 1317, McCoy cells, 36 °C for 40-48 hours, calculated for free base); 0.2 µg/mL (≈ 0.53 µM) in experiment [2] (C. Trachomatics G/ur 1242, McCoy cells, 36 °C for 40-48 hours, calculated for free base); 0.2 µg/mL (≈ 0.53 µM) in [3] (C. Trachomatics G/ur 1448, McCoy cells, 36 °C for 40-48 hours, calculated for free base); 0.39 µg/mL (≈ 1.03 µM) with M. arginini G-230 (M. arginini G-230, Chanock agar, 37 °C for 2 days, aerobically, calculated for free base); 0.39 µg/mL (≈ 1.03 µM) in the experiment with A. laidlawii PG-8 (A. laidlawii PG-8, Chanock agar, 37 °C for 2 days, aerobically, calculated for free base). Moreover, the MIC with M. hyorhinis BST-7 (M. hyorhinis BST-7, Chanock agar, 37 °C for 2 days, aerobically, calculated for free base) was 0.1 µg/mL (≈ 0.265 µM); in the experiment on M. hominis PG-21 (M. hominis PG-21, Chanock agar, 37 °C for 2 days, anaerobically, calculated for free base), 0.2 µg/mL (≈ 0.53 µM); with M. fermentans PG-18 (M. fermentans PG-18, Chanock agar, 37 °C for 2 days, anaerobically, calculated for free base), 0.1 µg/mL (≈ 0.265 µM); with M. pneumoniae Mac (M. pneumoniae Mac, Chanock agar, 37 °C for 7 days, aerobically, calculated for free base), 0.2 µg/mL (≈ 0.53 µM); with M. buccale CH-20249 (M. buccale CH-20249, Chanock agar, 37 °C for 2 days, anaerobically, calculated for free base) it was 0.2 µg/mL (≈ 0.53 µM); with M. orale CH-19299 (M. orale CH-19299, Chanock agar, 37 °C for 2 days, anaerobically, calculated for free base), 0.78 µg/mL (≈ 2.07 µM). In addition, the MIC with M. salivarium PG-20 (M. salivarium PG-20, Chanock agar, 37 °C for 2 days, anaerobically, calculated for free base) is 0.78 µg/mL (≈ 2.07 µM); in the experiment with S. aureus Terajima (S. aureus Terajima, Mueller-Hinton agar, 20-hour incubation at 37 °C, calculated for free base) it was 0.1 µg/mL (≈ 0.265 µM); with S. epidermidis No. 8 (S. epidermidis No. 8, Mueller-Hinton agar, 20-hour incubation at 37 °C, calculated for free base) it was 0.1 µg/mL (≈ 0.265 µM); in the experiment on S. marcescens S-9 (S9, S. marcescens S-9, Mueller-Hinton agar, 20-hour incubation at 37 °C, calculated for free base) it was 0.2 µg/mL (≈ 0.53 µM); in the experiment with P. aeruginosa 12 (Pseudomonas aeruginosa, P. aeruginosa 12, Mueller-Hinton agar, 20-hour incubation at 37 °C, calculated for free base), 0.78 µg/mL (≈ 2.07 µM); with S. aureus 209 JC-1 (209JC1, S. aureus 209 JC-1, Mueller-Hinton agar, 20-hour incubation at 37 °C, calculated for free base) it was 0.1 µg/mL (≈ 0.265 µM). The MIC in the experiment on S. pyogenes A65 (S. pyogenes A65, Mueller-Hinton agar, 20-hour incubation at 37 °C, calculated for free base) is 0.78 µg/mL (≈ 2.07 µM); in the experiment on E. coli P-5101 (P5101, E. coli P-5101, Mueller-Hinton agar, 20-hour incubation at 37 °C, calculated for free base), 0.0125 µg/mL (≈ 0.0331 µM); with S. aureus No. 80 (S. aureus No. 80, Mueller-Hinton agar, 20-hour incubation at 37 °C, calculated for free base) it was 0.1 µg/mL (≈ 0.265 µM); in the experiment with E. coli NIHJ JC-2 (NIHJJC2, E. coli NIHJ JC-2, Mueller-Hinton agar, 20-hour incubation at 37 °C, calculated for free base), 0.0125 µg/mL (≈ 0.0331 µM).
